Laboratory results from patent US20070185060A1, “Boronic acid thrombin inhibitors” (TRIGEN LIMITED, priority 2004, published 2007).
Each block holds one compound with its values, some of them ahead of it.

Columns and labels:
[1] = Solubility of TRI 50c monosodium salt at different pH values; assay type: physicochemical
Description: It may be desirable to make aqueous solutions of boronic acid drugs for administering them. […] However, a solution with a pH of 9.5 may be unacceptable or undesirable. Accordingly, a pharmaceutically acceptable organic acid may be included in the particulate formulation in an amount selected to reduce the pH to a value at which the solution is more acceptable but at which a solution of drinkable quantity (e.g. about 50 ml to about 150 ml) may be formed by reconstituting the particulate formulation. As the organic acid may be mentioned citric acid, tartaric acid or malic acid, for example. In many instances, citric acid is chosen.
In a first series of experiments, this amount of the salt was dissolved in 50 ml water to form a solution of approximately pH 9.5. Dilute aqueous HCl was added to determine how much the pH could be reduced before precipitation occurred.
In a second series of experiments, the same amount of the salt was dissolved in 150 ml water, and citric acid was added. […] Since acid solutions tend to be more palatable than alkaline ones, and citric acid is a common flavouring agent, this behaviour of the salt is highly beneficial. […] In general, it is contemplated that the boronate will be formulated to form a reconstituted solution having a pH of from 4 to 8, e.g. 4 to 7, optionally 5 to 6.

[2] = Stability under conditions of HPLC purity determination; assay type: physicochemical; details: sample preparation for HPLC
Trypsin [3] = assay: Trypsin inhibition, chromogenic substrate (Method C); assay type: biochemical; details: Trypsin versus thrombin
Description: (§1) 50 μl Trypsin (20 ng/ml in assay buffer) and 20 μl vehicle or compound solution were added to 110 μl assay buffer (100 mM Na orthophosphate (80% Na2HPO4 and 20% NaH2PO4), 200 mM NaCl, 0.5% PEG 6000, 0.02% Na azide, pH 7.5) and incubated for 5 minutes at 37° C.

Trypsin [4] = test system: T1, Trypsin; assay: as above; assay type: biochemical; details: Trypsin
T1 construct: IC50; other: Trypsin; Ki
Description: as §1

thrombin = thrombin (Homo sapiens, UniProt P00734); assay: Thrombin inhibition, chromogenic substrate (Method A); assay type: biochemical
Description: 50 μl thrombin (33.3 ng/ml in assay buffer) and 20 μl vehicle or compound solution were added to 110 μl assay buffer (100 mM Na orthophosphate (80% Na2HPO4 and 20% NaH2PO4), 200 mM NaCl, 0.5% PEG 6000, 0.02% Na azide, pH 7.5) and incubated for 5 minutes at 37° C.

Plasmin = Plasmin (Homo sapiens, UniProt P00747); assay: Plasmin inhibition, chromogenic substrate (Method B); assay type: biochemical
Description: 50 μl Plasmin (75 ng/ml in assay buffer) and 20 μl vehicle or compound solution were added to 110 μl assay buffer (100 mM Na orthophosphate (80% Na2HPO4 and 20% NaH2PO4), 200 mM NaCl, 0.5% PEG 6000, 0.02% Na azide, pH 7.5) and incubated for 5 minutes at 37° C.

Chain of Plasmin (P00747 581-810 limits assumed, species assumed): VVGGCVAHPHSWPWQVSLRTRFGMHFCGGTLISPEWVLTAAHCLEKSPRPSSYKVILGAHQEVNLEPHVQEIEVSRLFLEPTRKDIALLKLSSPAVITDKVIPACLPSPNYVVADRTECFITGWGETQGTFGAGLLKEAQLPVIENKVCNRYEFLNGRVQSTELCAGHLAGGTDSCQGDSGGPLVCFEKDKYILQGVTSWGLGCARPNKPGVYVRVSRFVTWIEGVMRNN
Chain of Plasmin (P00747 97-580 partner limits assumed, species assumed): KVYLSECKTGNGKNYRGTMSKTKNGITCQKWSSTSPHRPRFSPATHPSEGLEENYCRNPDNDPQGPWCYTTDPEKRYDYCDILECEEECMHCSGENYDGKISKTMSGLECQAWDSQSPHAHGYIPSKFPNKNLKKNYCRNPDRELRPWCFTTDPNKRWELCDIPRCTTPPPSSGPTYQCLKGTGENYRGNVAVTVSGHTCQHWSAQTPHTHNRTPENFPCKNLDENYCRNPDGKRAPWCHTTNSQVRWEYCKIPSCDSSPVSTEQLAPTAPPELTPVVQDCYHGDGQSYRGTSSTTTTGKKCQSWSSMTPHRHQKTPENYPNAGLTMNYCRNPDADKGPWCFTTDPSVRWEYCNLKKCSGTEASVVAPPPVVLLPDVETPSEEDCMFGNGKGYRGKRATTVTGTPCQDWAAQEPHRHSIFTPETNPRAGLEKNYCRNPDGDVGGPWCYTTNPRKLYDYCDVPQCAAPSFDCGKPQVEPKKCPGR

concentration of boronate salt solution that can be formed ([1]; aqueous solution at a pH of about 9.5): about 600 mg/ml | pH below which the salt tended to precipitate ([1]; salt equivalent to 600 mg TRI 50c in 50 ml water, dilute aqueous HCl added): below 9 | pH to which solution could be reduced before precipitation occurred ([1]; salt equivalent to 600 mg TRI 50c in 150 ml water, citric acid added): 3.7-3.8
SMILES: COCCC[C@H](NC(=O)[C@@H]1CCCN1C(=O)[C@@H](Cc1ccccc1)NC(=O)OCc1ccccc1)B(O)O.[Na+] [TRI 50c monosodium salt, Cbz-(R)-Phe-(S)-Pro-(R)-Mpg-B(OH)2 monosodium salt]

stability under HPLC purity determination conditions [2]: not stable
SMILES: COCCCC(NC(=O)C1CCCN1C(=O)C(Cc1ccccc1)NC(=O)OCc1ccccc1)B1OCCNCCO1 (stereo not drawn) [TRI 50d]

SMILES: COCCC[C@H](NC(=O)[C@@H]1CCCN1C(=O)[C@@H](Cc1ccc(F)cc1)NC(=O)OCc1ccccc1)B(O)O [TRI 50f, Cbz-4-F-Phe-Pro-boroMpg-OH]
Selectivity (Trypsin [3]): >100 | IC50 (Trypsin [4]): > 10 µM | Ki (Trypsin [4]): > 5 µM | IC50 (thrombin): < 0.1 µM | Ki (thrombin): < 0.075 µM | IC50 (Plasmin; Plasmin): > 100 µM | Ki (Plasmin; Plasmin): > 100 µM | Selectivity (Plasmin; Plasmin versus thrombin): >1000
